Data: article PMC9848300, “Discovery of novel enasidenib analogues targeting inhibition of mutant isocitrate dehydrogenase 2 as antileukaemic agents” (Journal of Enzyme Inhibition and Medicinal Chemistry, 2023)
Substitutions are numbered along the chain they refer to.

Columns and labels:
[1] = tested on: CCRF-CEM; experiment: NCI 60 antitumor screening (single dose / five doses); type: cell-based; details: Homo sapiens; for inhibition at 10 µM: CCRF-CEM (leukaemia), single dose 10 μM, read-out: Growth inhibition percentage (GI %)
[2] = tested on: HOP-92; experiment: as above; type: cell-based; details: Homo sapiens; for inhibition at 10 µM: HOP-92 (non-small cell lung cancer), single dose 10 μM, read-out: Growth inhibition percentage (GI %); for GI50: HOP-92, five doses (0.01–100 μM), read-out: GI50
[3] = in vitro; details: human
Procedure: Data was measured in triplicate, and IC50 values are given as mean values ± SD.

[4] = tested on: NCI/ADR-RES; experiment: NCI 60 antitumor screening (single dose / five doses); type: cell-based; details: Homo sapiens; for inhibition at 10 µM: NCI/ADR-RES (ovarian cancer), single dose 10 μM, read-out: Growth inhibition percentage (GI %); for GI50: NCI/ADR-RES, five doses (0.01–100 μM), read-out: GI50
[5] = biological target: T1, IDH2^R140Q (Homo sapiens, UniProt P48735, R140Q); experiment: biochemical
T1 sequence (P48735 40-452 R140Q): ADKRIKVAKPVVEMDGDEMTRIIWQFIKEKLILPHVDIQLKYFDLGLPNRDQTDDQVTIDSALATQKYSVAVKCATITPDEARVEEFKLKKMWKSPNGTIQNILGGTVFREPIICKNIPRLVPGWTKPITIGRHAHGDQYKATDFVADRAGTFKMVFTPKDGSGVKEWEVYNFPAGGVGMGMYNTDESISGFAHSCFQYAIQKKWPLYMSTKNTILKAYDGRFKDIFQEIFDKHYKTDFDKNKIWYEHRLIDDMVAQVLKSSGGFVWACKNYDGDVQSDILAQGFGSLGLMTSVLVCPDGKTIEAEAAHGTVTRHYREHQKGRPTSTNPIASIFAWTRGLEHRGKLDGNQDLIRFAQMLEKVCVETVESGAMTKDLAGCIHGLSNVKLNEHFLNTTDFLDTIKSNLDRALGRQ

[6] = tested on: A498; experiment: NCI 60 antitumor screening (single dose / five doses); type: cell-based; details: Homo sapiens; for GI50: A498, five doses (0.01–100 μM), read-out: GI50; for inhibition at 10 µM: A498 (renal cancer), single dose 10 μM, read-out: Growth inhibition percentage (GI %)
[7] = tested on: active Caspase 3; experiment: Western blot analysis for apoptotic markers; type: cell-based, human; details: HL-60(TB) cells
Procedure: (§1) Cysteine-containing aspartic acid-specific proteases, caspases provide essential links in cell controlling the apoptotic machinery[45]^,[46]. For this reason, this study was further extended to investigate the mechanism of compound 6c to provoke apoptosis in HL-60(TB) leukaemia cell line.
(§2) Compound 6c was incubated with the seeded cells following the procedure described by W. Neal Burnette[60].

[8] = tested on: active Caspase 9; experiment: Western blot analysis for apoptotic markers; type: cell-based, human; details: HL-60(TB) cells
Procedure: as §1, §2

[9] = tested on: HL-60(TB) cells; experiment: Annexin V-FITC/PI apoptosis assay; type: cell-based, human; details: GI50 (158 nM), 24 h
Procedure: Extrinsic as well as intrinsic apoptosis in leukaemia, HL-60(TB) cancer cells, induced by compound 6c was evaluated by Annexin V and PI staining. […] Compound 6c induced an early apoptosis (2.88%), in HL-60(TB) at 24 h compared to control (0.51%) and enhanced late apoptotic induction (15.75%) by more than 85-fold over the untreated cells (0.18%). Moreover, compound 6c induced necrosis by 7 times more than control as declared in Figures 8 and 9.
Annexin V-fluorescein isothiocyanate (Annexin V-FITC) has high affinity to phosphatidylserine (PS). This affinity enables detection of PS by Annexin V-FITC staining as previously described.

[10] = biological target: T2, wild type IDH2 (Homo sapiens, UniProt P48735); experiment: IDH2 enzyme inhibition assay (wild type IDH Assay Kit)
T2 sequence (P48735 40-452): T1 sequence (P48735 40-452 R140Q) with Q101R

[11] = tested on: HL-60(TB) cells; experiment: Cell cycle analysis (PI, flow cytometry); type: cell-based, human; details: 24 h
Procedure: Targeting cancer cell cycle has been emerged as a viable approach for cancer treatment. To recognise the role of compound 6c in GI of cancer cells, and induction of apoptosis in different phases, DNA flow cytometric analysis was performed to measure the effect of compound 6c on cell cycle progression for leukaemia, HL-60(TB) cancer cells.
Following that, two runs of wash with ice-cold phosphate-buffered saline (PBS) were performed. And then, the treated HL-60(TB) cells were centrifuged and frozen in ethanol (70%, ice-cold) then washed in PBS, resuspended with RNase ([…]), stained with PI ([…]), finally analysed by flow cytometry using a FACS Calibur (Becton Dickinson, BD; Franklin Lakes, NJ). To calculate the cell cycle distributions, CellQuest software version 5.1 (Becton Dickinson) was used.

[12] = tested on: SN 12C; experiment: NCI 60 antitumor screening (single dose / five doses); type: cell-based; details: Homo sapiens, SN12C; for inhibition at 10 µM: SN 12C (renal cancer), single dose 10 μM, read-out: Growth inhibition percentage (GI %)
[13] = tested on: SNB-75; experiment: as above; type: cell-based; details: Homo sapiens; for inhibition at 10 µM: SNB-75 (CNS cancer), single dose 10 μM, read-out: Growth inhibition percentage (GI %); for GI50: SNB-75, five doses (0.01–100 μM), read-out: GI50

| Structure (SMILES) | inhibition at 10 µM [1] | inhibition at 10 µM [2] | GI50 [2] | inhibition at 10 µM [4] | GI50 [4] | IC50 [5] | GI50 [6] | IC50 [10] | inhibition at 10 µM [12] | inhibition at 10 µM [13] | GI50 [13] | inhibition at 10 µM [6] | also measured |
| --- | --- | --- | --- | --- | --- | --- | --- | --- | --- | --- | --- | --- | --- |
| Brc1cccc(/C=N/Nc2nc(N/N=C/c3cccc(Br)c3)nc(N3CCOCC3)n2)c1 [compound 6c, 2,4-Bis[(E)-2-[(3-bromophenyl)methylidene]hydrazin-1-yl]-6-(morpholin-4-yl)-1,3,5-triazine] | 79% | 36.2% | 1.24 µM | 58.2% | 3.25 µM | 0.102 ± 0.00497 µM | 0.14 µM | 2.93 ± 0.11 µM | 55.8% | -7.5% | 4.54 µM |  | GI50 ([1]; CCRF-CEM, five doses (0.01–100 μM), read-out: GI50): 0.57 µM; IC50 [3]: 53.7 ± 2.94 µM; expression of active caspase 3 in comparison to the control [7]: about 3 fold; expression of active caspase 9 in comparison to the control [8]: ~4 fold; early apoptosis [9]: 2.88%; late apoptotic induction [9]: 15.75%; late apoptotic induction over the untreated cells [9]: more than 85 fold; necrosis induction relative to control [9]: 7 times; increase of apoptotic cells at the pre-G1 phase compared to DMSO ([11]; 158 nM): 14 fold; Cell cycle distribution %G0–G1 ([11]; GI50 concentration (158 nM)): 54.06%; Cell cycle distribution %G2/M ([11]; GI50 concentration (158 nM)): 4.76%; Cell cycle distribution %Pre-G1 ([11]; GI50 concentration (158 nM)): 28.02%; Cell cycle distribution %S ([11]; GI50 concentration (158 nM)): 41.18% |
| Fc1cccc(/C=N/Nc2nc(N/N=C/c3cccc(F)c3)nc(N3CCOCC3)n2)c1 [compound 6e, 2,4-Bis[(E)-2-[(3-Fluorophenyl)methylidene]hydrazin-1-yl]-6-(morpholin-4-yl)-1,3,5-triazine] | 32.8% | 8.68% |  | 8.29% |  | 0.067 ± 0.00327 µM |  | 2.3 ± 0.09 µM | 8.98% | 18.3% |  | 52% |  |
| Fc1cccc(Cl)c1/C=N/Nc1nc(N/N=C/c2c(F)cccc2Cl)nc(N2CCOCC2)n1 [compound 6l, 2,4-Bis[(E)-2-[(2-Chloro-6-fluorophenyl)methylidene]hydrazin-1-yl]-6-(morpholin-4-yl)-1,3,5-triazine] | 18.9% | 27% |  | 16.8% |  | 0.158 ± 0.00772 µM |  | 3.44 ± 0.13 µM | 15.3% | 9.55% |  | 26.9% |  |
| Fc1cccc(Cl)c1/C=N/Nc1nc(N/N=C/c2c(F)cccc2Cl)nc(N2CCCCC2)n1 [compound 7l, 2,4-Bis[(E)-2-[(2-Chloro-6-fluorophenyl)methylidene]hydrazin-1-yl]-6-(piperidin-1-yl)-1,3,5-triazine] | 77.7% | 101% | 1.47 µM | 84.8% | 2.76 µM | 0.16 ± 0.00781 µM | 2.4 µM | 9.5 ± 0.37 µM | 76.8% | 62.5% | 2.36 µM | 47.2% | GI50 ([12]; SN 12C, five doses (0.01–100 μM), read-out: GI50): 2.85 µM |
